Data: patent US20260217652A1, “PHENYL-SUBSTITUTED HETEROARYL COMPOUND AND PHARMACEUTICAL COMPOSITION COMPRISING SAME, PREPARATION METHOD THEREFOR AND USE THEREOF” (SHANGHAI MEIYUE BIOTECH DEVELOPMENT CO., LTD., priority 2023, published 2026)
pIC50: −log10 of the molar value.

Target: T1, p38 MAPK/MK2 (Homo sapiens, UniProt Q16539)
T1 construct: purchased Carna (p38α); Abcam (MK2) 04-152; 79910
Test: In vitro activity assay of p38 MAPK/MK2 (Z-LYTE kinase assay kit)
Assay type: biochemical
Conditions: active p38α, inactive MK2, Ser/Thr 4; 1-hour reaction at 20° C.
Experimental: (§1) The inhibitory effect of the compound on p38 MAPK/MK2 was evaluated using the Z-LYTE kinase assay kit (Thermo, PV3177). The test compound was dissolved in DMSO to obtain a 10 mM stock solution and stored at −20° C. for future use. The initial concentration of the compound was […], with 1% DMSO, 5-fold serial dilution, 8 concentrations, and duplicate wells. […] After a 1-hour reaction at 20° C., Development Reagent A diluted 2048-fold was added to each well, followed by incubation at room temperature for 1 hour. The reaction was terminated by adding 5 μL of stop buffer, and the plate was read using a microplate reader (Ex. 400 nm, Em. 445 nm; Ex. 400 nm, Em. 520 nm). The concentration-effect curve was fitted using GraphPad Prism 8 software, and the compound concentration resulting in 50% inhibition, IC50, was calculated.

T1 sequence (Q16539 whole entry): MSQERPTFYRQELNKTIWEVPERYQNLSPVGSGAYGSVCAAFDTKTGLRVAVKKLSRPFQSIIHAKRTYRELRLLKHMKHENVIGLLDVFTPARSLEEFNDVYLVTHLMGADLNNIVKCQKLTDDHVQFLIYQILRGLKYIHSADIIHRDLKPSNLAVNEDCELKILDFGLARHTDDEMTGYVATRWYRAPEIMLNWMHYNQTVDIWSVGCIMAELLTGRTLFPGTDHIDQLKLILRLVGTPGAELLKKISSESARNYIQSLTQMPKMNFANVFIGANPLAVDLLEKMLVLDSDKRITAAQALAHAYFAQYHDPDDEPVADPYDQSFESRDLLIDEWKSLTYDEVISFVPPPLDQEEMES
T1 sequence (P49137 whole entry partner): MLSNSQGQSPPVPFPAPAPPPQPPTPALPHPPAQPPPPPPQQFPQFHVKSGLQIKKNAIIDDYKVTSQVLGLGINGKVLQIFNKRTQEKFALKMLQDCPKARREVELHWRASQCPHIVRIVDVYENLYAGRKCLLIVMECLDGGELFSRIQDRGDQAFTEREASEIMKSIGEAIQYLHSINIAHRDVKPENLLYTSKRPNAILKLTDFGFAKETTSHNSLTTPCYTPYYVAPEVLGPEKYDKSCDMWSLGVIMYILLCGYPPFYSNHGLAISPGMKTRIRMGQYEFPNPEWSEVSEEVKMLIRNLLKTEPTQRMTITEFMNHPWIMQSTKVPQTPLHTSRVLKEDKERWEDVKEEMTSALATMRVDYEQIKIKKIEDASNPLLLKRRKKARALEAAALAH

pIC50	SMILES
9.29	Cc1cnc(-c2cccc(C(=O)N(C)C)c2)c(F)c1-n1c(C)cc(OCc2ncc(F)cc2F)c(Cl)c1=O (single isomer, unassigned) [Compound 32-P1]
9.23	Cc1cnc(-c2ccc(F)c([C@@](C)(O)CO)c2F)cc1-n1c(C)cc(OCc2ncc(F)cc2F)c(Cl)c1=O (single isomer, unassigned) [Compound 65-P4]

System: not listed separately
Test: In vitro liver microsome stability, mouse
Assay type: in vitro ADME
Conditions: liver microsomes, 0.5 mg/mL microsomes, 1 μM compound, NADPH, 37° C., read-out: Mouse liver microsomes Half-life T1/2
Experimental: (§2) The reference compound used in this experiment was Ketanserin, and the final concentration of microsomes in the experimental system was 0.5 mg/mL. The PBS buffer was a 50 mM K2HPO4 buffer. The concentration of the test compound was 1 μM. The microsomes were added to PBS, and the control/test compounds were respectively added to the corresponding reaction systems, mixed thoroughly, and pre-incubated in a 37° C. water bath for 5 minutes. The reaction was initiated by adding 20 mM NADPH solution under 37° C. water bath conditions (for the No NADPH samples, an equal volume of PBS solution was used as a substitute for the 20 mM NADPH solution). At the reaction time points of 0 min, 10 min, 30 mun, 60 min, and 90 min, 30 μL of reaction samples were taken from each reaction system (for the No NADPH samples, sampling was performed at 0 min and 90 min), and the reaction was immediately terminated by adding 300 μL of the internal standard acetonitrile solution. After centrifugation at 4000 rpm, the supernatant was taken and mixed thoroughly with an equal volume of pure water. The samples at each time point were analyzed by LC-MS/MS (AB Triple Quard 5500) to determine the compound content, and the T1/2 was calculated.

half-life at 1 μM [h]	SMILES
> 4.66	Cc1cnc(-c2ccc(F)c([C@@](C)(O)CO)c2F)cc1-n1c(C)cc(OCc2ncc(F)cc2F)c(Cl)c1=O (single isomer, unassigned) [Compound 65-P4]

Target: T2, p38 MAPK/MK5 (Homo sapiens, UniProt Q16539)
T2 construct: purchased Carna (p38α); Abcam (MK5) 04-152; 217826
T2 sequence (Q16539 whole entry): as the sequence (Q16539 whole entry) above
Test: In vitro activity assay of p38 MAPK/MK5 (Z-LYTE kinase assay kit)
Assay type: biochemical
Conditions: active p38α, inactive MK5, Ser/Thr 4; 4-hour reaction at 20° C.
Experimental: as §1, with “MAPK/MK5” for “MAPK/MK2”, “4-hour” for “1-hour”, “µL” for “μL”

pIC50	SMILES
5.78	Cc1cnc(-c2cccc(C(=O)N(C)C)c2)c(F)c1-n1c(C)cc(OCc2ncc(F)cc2F)c(Cl)c1=O (single isomer, unassigned) [Compound 32-P1]
< 4.70	Cc1cnc(-c2ccc(F)c([C@@](C)(O)CO)c2F)cc1-n1c(C)cc(OCc2ncc(F)cc2F)c(Cl)c1=O (single isomer, unassigned) [Compound 65-P4]

System: not listed separately
Test: In vitro liver microsome stability, human
Assay type: in vitro ADME
Conditions: liver microsomes, 0.5 mg/mL microsomes, 1 μM compound, NADPH, 37° C., read-out: Human liver microsomes Half-life T1/2
Experimental: as §2

half-life at 1 μM [h]	SMILES
> 4.66	Cc1cnc(-c2ccc(F)c([C@@](C)(O)CO)c2F)cc1-n1c(C)cc(OCc2ncc(F)cc2F)c(Cl)c1=O (single isomer, unassigned) [Compound 65-P4]

System: not listed separately
Test: In vitro liver microsome stability, rat
Assay type: in vitro ADME
Conditions: liver microsomes, 0.5 mg/mL microsomes, 1 μM compound, NADPH, 37° C., read-out: Rat liver microsomes Half-life T1/2
Experimental: as §2

half-life at 1 μM [h]	SMILES
> 4.66	Cc1cnc(-c2ccc(F)c([C@@](C)(O)CO)c2F)cc1-n1c(C)cc(OCc2ncc(F)cc2F)c(Cl)c1=O (single isomer, unassigned) [Compound 65-P4]

System: TNF-α in human PBMC cells
Test: In vitro TNF-α activity assay in human PBMC cell supernatant (LPS, ELISA)
Assay type: cell-based
Conditions: Homo sapiens, PBMC, 24 h, LPS 100 ng/mL, read-out: p38 MAPK/TNF-α IC50
Experimental: The inhibitory effect of the compound on TNF-α in the supernatant of human PBMC cells was evaluated using an ELISA detection kit (Beyotime, PI518). The test compound was dissolved in DMSO to obtain a 10 mM stock solution and stored at −20° C. for future use. The initial concentration of the compound was […], followed by 5-fold serial dilution to obtain 6 concentrations. Cells were plated in duplicate, and ELISA was performed in single wells. The final concentration of DMSO was 0.4%. Alternatively, the initial concentration of the compound, dilution factor, number of concentration gradients, and replicates could be adjusted based on the specific screening conditions.
Fresh human peripheral blood mononuclear cells (PBMCs) (Sailybio) were seeded at a density of 2×10^5 cells per well in a 96-well plate (Corning, 3599), with each well containing 100 μL of RPMI-1640 (Gibco #A1049101)+10% FBS (Gibco, 10099141C), and incubated overnight at 37° C. under 5% CO2. Test compounds were added to the 96-well culture plate at a volume of 25 μL per well. After 1 hour, 5 μL of LPS was added to achieve a final concentration of 100 ng/mL. No LPS and compound were added to the negative control wells, and no compound was added to the positive control wells. The mixture was further incubated for 24 hours at 37° C. under 5% CO2. Subsequently, the cell culture supernatant was collected by centrifugation at 500 rcf for 8 minutes. The concentration of TNF-α was measured according to the operation manual of the ELISA kit. The concentration-effect curve was fitted using GraphPad Prism 8 software, and the compound concentration resulting in 50% inhibition, IC50, was calculated.

SMILES	pIC50
Cc1cnc(-c2cccc(C(=O)N(C)C)c2)c(F)c1-n1c(C)cc(OCc2ncc(F)cc2F)c(Cl)c1=O (single isomer, unassigned) [Compound 32-P1]	8.49
Cc1cnc(-c2ccc(F)c([C@@](C)(O)CO)c2F)cc1-n1c(C)cc(OCc2ncc(F)cc2F)c(Cl)c1=O (single isomer, unassigned) [Compound 65-P4]	8.35

System: not listed separately
Test: Pharmacokinetic evaluation in mice
Assay type: in vivo
Conditions: mouse, plasma, intravenous injection group 1 mg/kg, read-out: Area under curve AUC0-24 h
Experimental: The compound was weighed and dissolved in a mixed solvent of DMAC: Solutol: PBS (1:1:8. After intravenous/gastric administration to mice, whole blood ([…]) was collected at 0.083, 0.25, 0.5, 1, 2, 4, 7, and 24 hours. The samples were anticoagulated with EDTA-K2, immediately centrifuged at 4000 rpm for 5 minutes at 4° C., and the supernatant was frozen in a −80° C. refrigerator. Plasma sample processing: The samples were precipitated with an internal standard-containing CH3CN precipitant, followed by centrifugation at 12700 rpm for 10 min. The supernatant was collected and analyzed by LC-MS/MS (AB Triple Quard 5500) to obtain the plasma drug concentration. The parameters were calculated using a non-compartmental model in Winnolin version 8.1.

AUC(0-t) [ng·h/mL]	SMILES
842	Cc1cnc(-c2cccc(C(=O)N(C)C)c2)c(F)c1-n1c(C)cc(OCc2ncc(F)cc2F)c(Cl)c1=O (single isomer, unassigned) [Compound 32-P1]

Same assay, conditions: mouse, plasma, intravenous injection group 1 mg/kg, read-out: Clearance CL (converted)

clearance [mL/min/kg]	SMILES
21.1	Cc1cnc(-c2cccc(C(=O)N(C)C)c2)c(F)c1-n1c(C)cc(OCc2ncc(F)cc2F)c(Cl)c1=O (single isomer, unassigned) [Compound 32-P1]

Same assay, conditions: mouse, plasma, intravenous injection group 1 mg/kg, read-out: Half-life T1/2 (converted)

half-life [h]	SMILES
0.35	Cc1cnc(-c2cccc(C(=O)N(C)C)c2)c(F)c1-n1c(C)cc(OCc2ncc(F)cc2F)c(Cl)c1=O (single isomer, unassigned) [Compound 32-P1]

Same assay, conditions: mouse, plasma, intravenous injection group 1 mg/kg, read-out: Initial concentration C0

C0 [ng/mL]	SMILES
1790	Cc1cnc(-c2cccc(C(=O)N(C)C)c2)c(F)c1-n1c(C)cc(OCc2ncc(F)cc2F)c(Cl)c1=O (single isomer, unassigned) [Compound 32-P1]

Same assay, conditions: mouse, plasma, intravenous injection group 1 mg/kg, read-out: Volume of distribution Vd

Vd [L/kg]	SMILES
0.49	Cc1cnc(-c2cccc(C(=O)N(C)C)c2)c(F)c1-n1c(C)cc(OCc2ncc(F)cc2F)c(Cl)c1=O (single isomer, unassigned) [Compound 32-P1]

Same assay, conditions: mouse, plasma, po, intragastric administration group 5 mg/kg, read-out: Area under curve AUC0-24 h

AUC(0-t) [ng·h/mL]	SMILES
2350	Cc1cnc(-c2cccc(C(=O)N(C)C)c2)c(F)c1-n1c(C)cc(OCc2ncc(F)cc2F)c(Cl)c1=O (single isomer, unassigned) [Compound 32-P1]

Same assay, conditions: mouse, plasma, po, intragastric administration group 5 mg/kg, read-out: Bioavailability F %

bioavailability [%]	SMILES
57.9	Cc1cnc(-c2cccc(C(=O)N(C)C)c2)c(F)c1-n1c(C)cc(OCc2ncc(F)cc2F)c(Cl)c1=O (single isomer, unassigned) [Compound 32-P1]

Same assay, conditions: mouse, plasma, po, intragastric administration group 5 mg/kg, read-out: Half-life T1/2 (converted)

half-life [h]	SMILES
1.54	Cc1cnc(-c2cccc(C(=O)N(C)C)c2)c(F)c1-n1c(C)cc(OCc2ncc(F)cc2F)c(Cl)c1=O (single isomer, unassigned) [Compound 32-P1]

Same assay, conditions: mouse, plasma, po, intragastric administration group 5 mg/kg, read-out: Maximum concentration Cmax

Cmax [ng/mL]	SMILES
1610	Cc1cnc(-c2cccc(C(=O)N(C)C)c2)c(F)c1-n1c(C)cc(OCc2ncc(F)cc2F)c(Cl)c1=O (single isomer, unassigned) [Compound 32-P1]

Target: T3, p38 MAPK/ATF2 (Homo sapiens, UniProt Q16539)
T3 construct: purchased Carna Biosciences (p38α); Sino Biological (ATF2) 04-152; 11599-H20B
Test: In vitro activity assay of p38 MAPK/ATF2 (HTRF)
Assay type: biochemical
Conditions: p38α, Human ATF2 Protein, ATP; 35 min at 20° C.
Experimental: The inhibitory effect of the compound on p38a-catalyzed ATF2 was evaluated by the HTRF method. The test compound was dissolved in DMSO to obtain a 10 mM stock solution and stored at −20° C. for future use. The initial concentration of the compound was 10 μM, with 0.25% DMSO, 5-fold serial dilution, 8 concentrations, and duplicate wells. The reaction buffer, consisting of 40 mM Tris pH 7.5, 20 mM MgCl2, 0.1 mg/mL BSA, and 50 μM DTT, was used to prepare 3.5×p38α (MAPK14, Carna Biosciences, 04-152) protein working solution, 3.5×Human ATF2 Protein (Sino Biological, 11599-H20B) working solution, and 3.5×ATP working solution. The reaction was terminated with 10 mM EDTA. The final 14 μL reaction system was performed in a 96-well plate (cisbio, 66PL96025), containing 0.29 ng/μL p38a, […] Human ATF2 Protein, and 25 µM ATP. After reacting at 20° C. for 35 min, the pre-prepared antibody solution (cibio, 63ADK015PEG, Phospho-ATF2 Eu Cryptate antibody, Phospho-ATF2 d2 antibody, diluted 40-fold with Detection buffer) was added to each well and incubated overnight at room temperature. The samples were then measured using a microplate reader (HTRF compatible reader). The concentration-effect curve was fitted using GraphPad Prism 8 software, and the compound concentration resulting in 50% inhibition, IC50, was calculated.

pIC50	SMILES
5.44	Cc1cnc(-c2cccc(C(=O)N(C)C)c2)c(F)c1-n1c(C)cc(OCc2ncc(F)cc2F)c(Cl)c1=O (single isomer, unassigned) [Compound 32-P1]
5.34	Cc1cnc(-c2ccc(F)c([C@@](C)(O)CO)c2F)cc1-n1c(C)cc(OCc2ncc(F)cc2F)c(Cl)c1=O (single isomer, unassigned) [Compound 65-P4]
